Values of other authors in patent US11957727B2, “Prevention of neuroinflammation associated memory loss using nutraceutical compositions” (priority 2020, dated 2024).
Like-named read-outs stand apart in the source and are kept apart here.

Assays:
[1] = tested on: ulcerative colitis (UC); conditions: 50 and 100 mg/kg/day
[2] = tested on: myocardial ischemia and reperfusion; conditions: 10 mg/kg intravenously then 10 mg/kg/h infusion, rats
[3] = tested on: nitric oxide; conditions: lipopolysaccharide-induced
[4] = tested on: sepsis induction with live Escherichia coli / endotoxin (LPS 0111:B4); conditions: for concentration of IL-la: controls 1187.0±278.64 pg/ml
[5] = tested on: human umbilical vein VECs (HUVECs)
[6] = tested on: endothelium of atherosclerotic plaque; conditions: PT injection, apoE(−/−) mice
[7] = animal studies
[8] = tested on: Nrf2 (+/+) primary peritoneal macrophages
[9] = tested on: LPS-induced ARDS
[10] = 50 mg/kg, LPS 5 mg/kg 3 days later

Epigallocatechin-3-gallate [EGCG]
release of IL-6 and IL-17 [1]: reduce | myocardial damage and myeloperoxidase activity [2]: reduced | plasma IL-6 and creatine phosphokinase levels [2]: decreased

CC1=CC(=O)C(C(C)C)=CC1=O [thymoquinone]
concentration of nitric oxide [3]: reduced significantly | concentration of IL-la ([4]; 0.75 mg/kg thymoquinone dose): 310.8 ± 70.93 pg/mL | IL-10 levels ([4]; 0.75 mg/kg thymoquinone, controls 5505.2±333.96 pg/ml): 2885.0 ± 553.98 pg/mL | concentration of IL-la ([4]; 1 mg/kg group): 428.3 ± 71.32 pg/mL | levels of TNF-α and IL-2 ([4]; P values=0.1817 and 0.0851): relatively lower levels | reduction of mortality ([4]; mice, thymoquinone before LPS or live E. coli challenge): 80-90%

trans-3,5-dimethoxy-4-hydroxystilbene [pterostilbene]
protection against oxLDL-induced cell shrinkage, chromatin condensation, nuclear fragmentation and apoptosis ([5]; HUVECs, oxLDL 200 μg/ml): protected against such injuries | expression of lectin-like oxLDL receptor-1 (LOX-1) ([5]; in vitro and in vivo): inhibited | number of TUNEL-positive cells [6]: strongly decreased | bioavailability [7]: 80%

C[S+]([O-])CCCCN=C=S (stereo not shown) [sulforaphane, 1-isothiocyanato-4-(methylsulfinyl)-butane]
HO-1 expression ([8]; LPS-stimulated Nrf2 (+/+) macrophages): significantly augmented | LPS-stimulated mRNA expression, protein expression and production of TNF-alpha, IL-1beta, COX-2 and iNOS ([8]; pretreatment, Nrf2 (+/+) macrophages): potently inhibited | lactate dehydrogenase (LDH) activity [9, 10]: significantly decreased | wet-to-dry ratio of the lungs [9, 10]: significantly decreased | serum levels of interleukin-6 (IL-6) and tumor necrosis factor-α (TNF-α) ([9]; 50 mg/kg, LPS 5 mg/kg 3 days later, ELISA): significantly decreased | prostaglandin E2 (PGE2) production ([9]; mice with LPS-induced ALI): significantly inhibited
